Data reported in PMC5218480 (PLoS ONE, 2017).

Tested on: MV-4-11 cells
Assay: Gene expression microarray analysis (Affymetrix PrimeView) and GSEA
Format: cell-based, human
Design: RFU PODN (11730768_x_at) / Fold change /veh PODN (11730768_x_at) / RFU LINC00158 (11744669_a_at) / Fold change /veh LINC00158 (11744669_a_at) / RFU DUSP10 (11751237_a_at) / Fold change /veh DUSP10 (11751237_a_at) / RFU ID3 (11757404_x_at) / Fold change /veh ID3 (11757404_x_at) / RFU PLEKHG5 (11737974_s_at) / Fold change /veh PLEKHG5 (11737974_s_at) / RFU LRRC4B (11730491_at) / Fold change /veh LRRC4B (11730491_at) / RFU GIMAP4 (11747438_a_at) / Fold change /veh GIMAP4 (11747438_a_at) / RFU KRT8 (11758183_x_at) / Fold change /veh KRT8 (11758183_x_at) / RFU CNN1 (11734310_a_at) / Fold change /veh CNN1 (11734310_a_at) / RFU VPS37D (11726825_at) / Fold change /veh VPS37D (11726825_at) / RFU C10orf10 (11716522_x_at) / Fold change /veh C10orf10 (11716522_x_at) / RFU KIR2DL2 /// KIR2DL4 /// KIR2DL5A /// KIR2DL5B /// KIR2DS1 /// KIR2DS2 /// KIR2DS3 /// KIR2DS4 /// KIR3DL3 /// KIR3DL3 /// KIR3DS1 (11738374_at) / Fold change /veh KIR2DL2 /// KIR2DL4 /// KIR2DL5A /// KIR2DL5B /// KIR2DS1 /// KIR2DS2 /// KIR2DS3 /// KIR2DS4 /// KIR3DL3 /// KIR3DL3 /// KIR3DS1 (11738374_at) / RFU C1QL1 (11718748_at) / Fold change /veh C1QL1 (11718748_at) / RFU TMPRSS4 (11747572_a_at) / Fold change /veh TMPRSS4 (11747572_a_at) / RFU HAMP (11756126_x_at) / Fold change /veh HAMP (11756126_x_at) / RFU RNFT2 (11725882_a_at) / Fold change /veh RNFT2 (11725882_a_at) / RFU NR4A2 (11747474_a_at) / Fold change /veh NR4A2 (11747474_a_at) / RFU ABCC12 (11746883_a_at) / Fold change /veh ABCC12 (11746883_a_at) / RFU TMEM136 (11760407_x_at) / Fold change /veh TMEM136 (11760407_x_at) / RFU CLDN22 /// WWC2 (11732394_at) / Fold change /veh CLDN22 /// WWC2 (11732394_at) / RFU HLA-DPB1 (11760878_x_at) / Fold change /veh HLA-DPB1 (11760878_x_at) / RFU SPINT1 (11716480_a_at) / Fold change /veh SPINT1 (11716480_a_at) / RFU GAP43 (11754022_s_at) / Fold change /veh GAP43 (11754022_s_at) / RFU A4GNT (11735810_at) / Fold change /veh A4GNT (11735810_at) / RFU PRB3 (11715151_x_at) / Fold change /veh PRB3 (11715151_x_at) / RFU TUBB4B (11761932_at) / Fold change /veh TUBB4B (11761932_at) / RFU CAPN14 (11732068_a_at) / Fold change /veh CAPN14 (11732068_a_at) / RFU TMCC2 (11721928_a_at) / Fold change /veh TMCC2 (11721928_a_at) / RFU IRGQ (11745062_a_at) / Fold change /veh IRGQ (11745062_a_at) / RFU FAM174B (11720279_a_at) / Fold change /veh FAM174B (11720279_a_at) / RFU TMPRSS4 (11748680_a_at) / Fold change /veh TMPRSS4 (11748680_a_at) / RFU FAM212B (11763350_a_at) / Fold change /veh FAM212B (11763350_a_at) / RFU PLEKHG5 (11743358_a_at) / Fold change /veh PLEKHG5 (11743358_a_at) / RFU ZSCAN30 (11745921_a_at) / Fold change /veh ZSCAN30 (11745921_a_at) / RFU CMKLR1 (11741424_a_at) / Fold change /veh CMKLR1 (11741424_a_at) / RFU LOC101060620 /// MAPK8IP1 (11723275_at) / Fold change /veh LOC101060620 /// MAPK8IP1 (11723275_at) / RFU SPTSSB (11747773_x_at) / Fold change /veh SPTSSB (11747773_x_at) / RFU PRSS12 (11739890_at) / Fold change /veh PRSS12 (11739890_at) / RFU BIN1 (11741810_x_at) / Fold change /veh BIN1 (11741810_x_at) / RFU WNT11 (11732464_a_at) / Fold change /veh WNT11 (11732464_a_at) / RFU C10orf10 (11716521_a_at) / Fold change /veh C10orf10 (11716521_a_at) / RFU C5orf56 (11738089_at) / Fold change /veh C5orf56 (11738089_at) / RFU CYB561 (11721691_x_at) / Fold change /veh CYB561 (11721691_x_at) / RFU ANKRD19P (11752326_a_at) / Fold change /veh ANKRD19P (11752326_a_at) / RFU OR2T12 /// OR2T33 /// OR2T8 (11738714_s_at) / Fold change /veh OR2T12 /// OR2T33 /// OR2T8 (11738714_s_at) / RFU VCAN (11748164_a_at) / Fold change /veh VCAN (11748164_a_at) / RFU JSRP1 (11732532_at) / Fold change /veh JSRP1 (11732532_at) / RFU KRTAP10-11 (11738290_x_at) / Fold change /veh KRTAP10-11 (11738290_x_at) / RFU MYO3A (11730013_a_at) / Fold change /veh MYO3A (11730013_a_at) / RFU EBF3 (11725865_a_at) / Fold change /veh EBF3 (11725865_a_at) / RFU CAMK2N1 (11719241_x_at) / Fold change /veh CAMK2N1 (11719241_x_at) / RFU C5orf56 (11738088_a_at) / Fold change /veh C5orf56 (11738088_a_at) / RFU OLFML3 (11715873_a_at) / Fold change /veh OLFML3 (11715873_a_at) / RFU LOC100653217 /// NTM (11731650_a_at) / Fold change /veh LOC100653217 /// NTM (11731650_a_at) / RFU MAPK11 (11762145_a_at) / Fold change /veh MAPK11 (11762145_a_at) / RFU FIZ1 (11724087_x_at) / Fold change /veh FIZ1 (11724087_x_at) / RFU OASL (11726364_x_at) / Fold change /veh OASL (11726364_x_at) / RFU SOX15 (11748057_x_at) / Fold change /veh SOX15 (11748057_x_at) / RFU CD79A (11719716_a_at) / Fold change /veh CD79A (11719716_a_at) / RFU HIST1H1D (11736915_at) / Fold change /veh HIST1H1D (11736915_at) / RFU CASKIN2 (11723855_a_at) / Fold change /veh CASKIN2 (11723855_a_at) / RFU LOC730098 (11760151_x_at) / Fold change /veh LOC730098 (11760151_x_at) / RFU OR4N2 (11742367_at) / Fold change /veh OR4N2 (11742367_at) / RFU PRRT2 (11749266_a_at) / Fold change /veh PRRT2 (11749266_a_at) / RFU SNX32 (11753110_a_at) / Fold change /veh SNX32 (11753110_a_at) / RFU CDHR5 (11726645_a_at) / Fold change /veh CDHR5 (11726645_a_at) / RFU RCAN1 (11760418_a_at) / Fold change /veh RCAN1 (11760418_a_at) / RFU FAM167A (11723789_a_at) / Fold change /veh FAM167A (11723789_a_at) / RFU FAM26E (11764081_at) / Fold change /veh FAM26E (11764081_at) / RFU ISYNA1 (11749810_s_at) / Fold change /veh ISYNA1 (11749810_s_at) / RFU ACY1 (11761880_at) / Fold change /veh ACY1 (11761880_at) / RFU 11764098_at / Fold change /veh 11764098_at / RFU SAMD14 (11745864_x_at) / Fold change /veh SAMD14 (11745864_x_at) / RFU NPB (11741838_a_at) / Fold change /veh NPB (11741838_a_at) / RFU TMPRSS6 (11731388_a_at) / Fold change /veh TMPRSS6 (11731388_a_at) / RFU KRTAP10-2 (11738614_at) / Fold change /veh KRTAP10-2 (11738614_at) / RFU ARHGAP8 /// PRR5-ARHGAP8 (11727945_x_at) / Fold change /veh ARHGAP8 /// PRR5-ARHGAP8 (11727945_x_at) / RFU KRTAP5-7 /// NADSYN1 (11734609_at) / Fold change /veh KRTAP5-7 /// NADSYN1 (11734609_at) / RFU RASL12 (11751679_a_at) / Fold change /veh RASL12 (11751679_a_at) / RFU CDKN2B (11736163_a_at) / Fold change /veh CDKN2B (11736163_a_at) / RFU PRF1 (11729649_at) / Fold change /veh PRF1 (11729649_at) / RFU, ZNF638 /// ZNF638-IT1 / Fold change vs veh, ZNF638 /// ZNF638-IT1 / RFU, PANK3 / Fold change vs veh, PANK3 / RFU, SH3YL1 / Fold change vs veh, SH3YL1 / RFU, ZEB2 / Fold change vs veh, ZEB2 / RFU, NRIP1 / Fold change vs veh, NRIP1 / RFU, PTTG1IP / Fold change vs veh, PTTG1IP / RFU, CAPN2 / Fold change vs veh, CAPN2 / RFU, MED14 / Fold change vs veh, MED14 / RFU, SNORA58 / Fold change vs veh, SNORA58 / RFU, C1orf63 / Fold change vs veh, C1orf63 / RFU, LRRFIP1 / Fold change vs veh, LRRFIP1 / RFU, NDUFAF7 / Fold change vs veh, NDUFAF7 / RFU, SLC12A2 / Fold change vs veh, SLC12A2 / RFU, IBTK / Fold change vs veh, IBTK / RFU, ESF1 / Fold change vs veh, ESF1 / Fold change vs veh, TMEM50B / RFU, TAOK1 / Fold change vs veh, TAOK1 / RFU, ACBD3 / Fold change vs veh, ACBD3 / RFU, TMA16 / Fold change vs veh, TMA16 / RFU, RWDD3 / Fold change vs veh, RWDD3 / RFU, BCAT1 / Fold change vs veh, BCAT1 / RFU, EDEM3 / Fold change vs veh, EDEM3 / RFU, TMEM33 / Fold change vs veh, TMEM33 / RFU, WDR75 / Fold change vs veh, WDR75 / RFU, AHCTF1 / Fold change vs veh, AHCTF1 / RFU, TFRC / Fold change vs veh, TFRC / RFU, ZDHHC17 / Fold change vs veh, ZDHHC17 / RFU, NOM1 / Fold change vs veh, NOM1 / RFU, ARL8B / Fold change vs veh, ARL8B / RFU, ZBTB11 / Fold change vs veh, ZBTB11 / RFU, TAMM41 / Fold change vs veh, TAMM41 / RFU, KIAA1704 /// LOC100996395 / Fold change vs veh, KIAA1704 /// LOC100996395 / RFU, ING1 / Fold change vs veh, ING1 / RFU, TRMT61B / Fold change vs veh, TRMT61B / RFU, FUBP3 / Fold change vs veh, FUBP3 / RFU, TP53 / Fold change vs veh, TP53 / RFU, TNKS2 / Fold change vs veh, TNKS2 / RFU, ZFP14 / Fold change vs veh, ZFP14 / RFU, ACTR2 / Fold change vs veh, ACTR2 / RFU, PPP3R1 / Fold change vs veh, PPP3R1 / RFU, PIK3R1 / Fold change vs veh, PIK3R1 / RFU, HNRNPA1 / Fold change vs veh, HNRNPA1 / RFU, RNF170 / Fold change vs veh, RNF170 / RFU, ZNF28 / Fold change vs veh, ZNF28 / RFU, RNGTT / Fold change vs veh, RNGTT / RFU, OGT / Fold change vs veh, OGT / RFU, BRD1 / Fold change vs veh, BRD1 / RFU, MARS / Fold change vs veh, MARS / RFU, ZNF655 / Fold change vs veh, ZNF655 / RFU, FAHD1 / Fold change vs veh, FAHD1 / RFU, BDP1 / Fold change vs veh, BDP1 / RFU, LRRCC1 / Fold change vs veh, LRRCC1 / RFU, ARID1A / Fold change vs veh, ARID1A / RFU, ZNF146 / Fold change vs veh, ZNF146 / RFU, ZNF330 / Fold change vs veh, ZNF330 / RFU, GPN3 / Fold change vs veh, GPN3 / RFU, C9orf123 / Fold change vs veh, C9orf123 / RFU, N4BP2L2 / Fold change vs veh, N4BP2L2 / RFU, ARFIP1 / Fold change vs veh, ARFIP1 / RFU, FAM179B / Fold change vs veh, FAM179B / RFU, BCL10 / Fold change vs veh, BCL10 / RFU, UHRF1BP1L / Fold change vs veh, UHRF1BP1L / RFU, BET1 / Fold change vs veh, BET1 / RFU, CNOT2 / Fold change vs veh, CNOT2 / RFU, ZNF268 / Fold change vs veh, ZNF268 / Fold change vs veh, ZNF507 / RFU, DGCR2 / Fold change vs veh, DGCR2 / RFU, WDSUB1 / Fold change vs veh, WDSUB1 / Fold change vs veh, HSP90B1 /// MIR3652 / RFU, ADSS / Fold change vs veh, ADSS / RFU, GK / Fold change vs veh, GK / RFU, ZNF148 / Fold change vs veh, ZNF148 / RFU, TAF9 / Fold change vs veh, TAF9 / RFU, SLC1A5 / Fold change vs veh, SLC1A5 / RFU, SLMO2 / Fold change vs veh, SLMO2 / RFU, ABCC4 / Fold change vs veh, ABCC4 / RFU, LOC101060439 /// RAP1B / Fold change vs veh, LOC101060439 /// RAP1B / RFU, RFX7 / Fold change vs veh, RFX7 / RFU, GTPBP10 / Fold change vs veh, GTPBP10 / RFU, CNEP1R1 / Fold change vs veh, CNEP1R1 / RFU, BIVM-ERCC5 /// ERCC5 / Fold change vs veh, BIVM-ERCC5 /// ERCC5 / RFU, ILF3 / Fold change vs veh, ILF3 / RFU 11762660_at / Fold change /veh 11762660_at / RFU VCAN (11757783_s_at) / Fold change /veh VCAN (11757783_s_at) / RFU DDX43 (11728927_at) / Fold change /veh DDX43 (11728927_at) / RFU KRT8 (11758188_x_at) / Fold change /veh KRT8 (11758188_x_at) / RFU NKD1 (11759106_at) / Fold change /veh NKD1 (11759106_at) / RFU SRD5A1 (11742802_a_at) / Fold change /veh SRD5A1 (11742802_a_at) / RFU TPSAB1 /// TPSB2 (11721975_s_at) / Fold change /veh TPSAB1 /// TPSB2 (11721975_s_at) / RFU GSTM3 (11746129_a_at) / Fold change /veh GSTM3 (11746129_a_at) / RFU IL23R (11737362_x_at) / Fold change /veh IL23R (11737362_x_at) / RFU TMEM51 (11727254_a_at) / Fold change /veh TMEM51 (11727254_a_at) / RFU PIWIL2 (11732686_x_at) / Fold change /veh PIWIL2 (11732686_x_at) / RFU ORM1 (11744905_x_at) / Fold change /veh ORM1 (11744905_x_at) / RFU CCDC152 (11743942_at) / Fold change /veh CCDC152 (11743942_at) / RFU ECM1 (11717891_a_at) / Fold change /veh ECM1 (11717891_a_at) / RFU IL23R (11748794_a_at) / Fold change /veh IL23R (11748794_a_at) / RFU TNFAIP8L3 (11732012_x_at) / Fold change /veh TNFAIP8L3 (11732012_x_at) / RFU MBOAT4 (11741988_at) / Fold change /veh MBOAT4 (11741988_at) / RFU 11764193_at / Fold change /veh 11764193_at / RFU TMEM53 (11763286_at) / Fold change /veh TMEM53 (11763286_at) / RFU MAGEB2 (11727129_at) / Fold change /veh MAGEB2 (11727129_at) / RFU TMEM200A (11744735_a_at) / Fold change /veh TMEM200A (11744735_a_at) / RFU CCDC152 (11751479_a_at) / Fold change /veh CCDC152 (11751479_a_at) / RFU FAM211A (11726209_a_at) / Fold change /veh FAM211A (11726209_a_at) / RFU RGS16 (11746705_a_at) / Fold change /veh RGS16 (11746705_a_at) / RFU VCAN (11755009_s_at) / Fold change /veh VCAN (11755009_s_at) / RFU RHOB (11743442_s_at) / Fold change /veh RHOB (11743442_s_at) / RFU RGS16 (11720943_a_at) / Fold change /veh RGS16 (11720943_a_at) / RFU RGS16 (11720944_at) / Fold change /veh RGS16 (11720944_at) / RFU, VPS4B / Fold change vs veh, VPS4B / RFU, CREB1 / Fold change vs veh, CREB1 / RFU, DNAJC13 / Fold change vs veh, DNAJC13 / RFU, GNAQ / Fold change vs veh, GNAQ / RFU, CDK5R1 / Fold change vs veh, CDK5R1 / RFU, ZRANB3 / Fold change vs veh, ZRANB3 / RFU, CUL4A / Fold change vs veh, CUL4A / RFU, CCNY / Fold change vs veh, CCNY / RFU, UFL1 / Fold change vs veh, UFL1 / RFU, COG3 / Fold change vs veh, COG3 / RFU, DIAPH2 / Fold change vs veh, DIAPH2 / RFU, SKA2 / Fold change vs veh, SKA2 / RFU, AFF3 / Fold change vs veh, AFF3 / RFU, LMF1 / Fold change vs veh, LMF1 / RFU, IPO11 / Fold change vs veh, IPO11 / RFU, DFFB / Fold change vs veh, DFFB / RFU, FOXP1 / Fold change vs veh, FOXP1 / RFU, CARD8 / Fold change vs veh, CARD8 / RFU, STRN3 / Fold change vs veh, STRN3 / RFU, ADK / Fold change vs veh, ADK / RFU, RASSF2 / Fold change vs veh, RASSF2 / RFU, WIPF1 / Fold change vs veh, WIPF1 / RFU, LARP1B / Fold change vs veh, LARP1B / RFU, RASA1 / Fold change vs veh, RASA1 / RFU, RB1 / Fold change vs veh, RB1 / RFU, PPFIA1 / Fold change vs veh, PPFIA1 / RFU, MAT2A / Fold change vs veh, MAT2A / RFU, CCT5 / Fold change vs veh, CCT5 / RFU, WDR92 / Fold change vs veh, WDR92 / RFU, CUX1 / Fold change vs veh, CUX1 / RFU, TTC7A / Fold change vs veh, TTC7A / RFU, TMEM135 / Fold change vs veh, TMEM135 / RFU, DEPTOR / Fold change vs veh, DEPTOR / RFU, CPM / Fold change vs veh, CPM / RFU, DNAJB6 / Fold change vs veh, DNAJB6 / RFU, CACNA2D3 / Fold change vs veh, CACNA2D3 / RFU, DTX4 / Fold change vs veh, DTX4 / RFU, TFCP2 / Fold change vs veh, TFCP2 / RFU, GMCL1 /// GMCL1P1 / Fold change vs veh, GMCL1 /// GMCL1P1 / RFU, AEBP2 / Fold change vs veh, AEBP2 / RFU, SNHG1 /// SNORD22 /// SNORD25 /// SNORD26 /// SNORD27 /// SNORD28 /// SNORD29 /// SNORD31 / Fold change vs veh, SNHG1 /// SNORD22 /// SNORD25 /// SNORD26 /// SNORD27 /// SNORD28 /// SNORD29 /// SNORD31 / Fold change (Aza/veh), C12orf56 (ProbeSet 11735607_a_at) / Fold change (ACY-1035/veh), C12orf56 (ProbeSet 11735607_a_at) / Fold change (Aza/veh), FGFR1OP (ProbeSet 11751329_s_at) / Fold change (ACY-1035/veh), FGFR1OP (ProbeSet 11751329_s_at) / Fold change (Aza/veh), VPS36 (ProbeSet 11739960_a_at) / Fold change (ACY-1035/veh), VPS36 (ProbeSet 11739960_a_at) / RFU SYPL1 (11715823_x_at) / Fold change /veh SYPL1 (11715823_x_at) / RFU IGFBP7 (11715501_s_at) / Fold change /veh IGFBP7 (11715501_s_at) / RFU REEP3 (11722064_at) / Fold change /veh REEP3 (11722064_at) / RFU IGLL1 (11728026_x_at) / Fold change /veh IGLL1 (11728026_x_at): dose or concentration left out as unconfirmed
Details: ProbeSet 11745428_a_at; LIST D

SMILES: Nc1ncn([C@@H]2O[C@H](CO)[C@@H](O)[C@H]2O)c(=O)n1 [azacitidine]
- Fold change vs veh, DFFB: 0.78
